Here are results for five compounds from publication PMC12085125 (Drug Design, Development and Therapy, 2025).

The conditions of series [1]: healthy male adults; cited from earlier work.
Series [2] concerns rat liver microsomes. The following applies: metabolism to M8, n=3.
Series [3] relates to cytochrome P450 3A4 (CYP3A4). To be noted: cited from earlier work.
Series [4] concerns cytochrome P450 2C19 (CYP2C19). To be noted: cited from earlier work.
Series [5] in a line: in vitro. To be noted: Sprague-Dawley, rat, liver microsomes.
Series [6] relates to tofacitinib metabolism in rat liver microsomes (enzyme not specified). In words: Inhibition of tofacitinib metabolism in rat liver microsomes. The series is classed as in vitro ADME. The following applies: probe tofacitinib. (Liver microsomes are vesicles of endoplasmic reticulum, rich in cytochrome P450 enzymes.)
The conditions of series [7]: cited from earlier work.

As for `CC(=O)N1CCN(c2ccc(OCC3COC(Cn4ccnc4)(c4ccc(Cl)cc4Cl)O3)cc2)CC1` (stereo not drawn) [Ketoconazole], in series [1], the “increase of AUC of tofacitinib when combined” value is on record as 103% and the “increase of Cmax of tofacitinib when combined” value is recorded as 16%.
The Km is the concentration of substrate that gives half-maximal velocity. For the compound `C[C@@H]1CCN(C(=O)CC#N)C[C@@H]1N(C)c1ncnc2[nH]ccc12` [Tofacitinib], in series [2], the “Vmax of tofacitinib enzyme kinetics” value is reported as 5.482 pmol/min/mg. The “share processed by CYP3A4” value in series [3] was “approximately 50%”. Moreover, in series [4], the “share processed by CYP2C19” value was ~20%. The Km at 30 min in series [5] is 37.3 µM.
Regarding `OC(Cn1cncn1)(Cn1cncn1)c1ccc(F)cc1F` [Fluconazole], in series [1], the “increase of AUC of tofacitinib when combined” value is 79% and the “increase of Cmax of tofacitinib when combined” value was 27%.
In general, IC50 refers to the concentration that gives 50% inhibition. A high value points to lower potency. `COc1ccc2c(c1)C(=O)N(CCc1ccc(S(=O)(=O)NC(=O)NC3CCCCC3)cc1)C(=O)C2(C)C` [Gliquidone] came in with an IC50 at 30 min in series [6] of 1.14 µM. Besides, in series [7] (after oral administration), the half-life entry is listed as “approximately 1.5 hours”.
With `CC#CCn1c(N2CCC[C@@H](N)C2)nc2c1c(=O)n(Cc1nc(C)c3ccccc3n1)c(=O)n2C` [Linagliptin], the IC50 at 30 min in series [6] stood at 4.06 µM. Also, the bioavailability entry in series [7] is “approximately 30%”.
